Legend:
IRAK4 = IRAK4 (Homo sapiens (Human), UniProt Q9NWZ3); test: IRAK4 enzymatic assay; assay type: biochemical; details: human recombinant His-TEV-IRAK4, ATP 2 μM, STK1-biotin peptide, FlashPlate
Procedure: IRAK4 is a human purified recombinant enzyme (His-TEV-IRAK1 (194-712)
IRAK4 hydrolyses ATP, autophosphorylates and phosphorylates a Serine/Threonine generic peptidic substrate (STK: 61ST1BLC from CisBio International based in Bagnols/Cèze FR).
Measurement of IRAK-4 inhibition is performed in streptavidin coated 384 well FlashPlate (PerkinElmer #SMP410A). His-TEV-IRAK4 (20 ng/well), ATP (2 μM, [^33P]ATP 0.25 μCi/well), STK1-biotin peptide (300 nM) and compounds in DMSO (range of concentrations from 20 μM to 1 nM) or controls (2% DMSO) are incubated for 3 hours at 30° C. in assay buffer: Hepes pH7.0 50 mM, Fatty acid-free BSA 0.1%, Dithiothreitol DTT 2 mM, MgCl2 10 mM, EGTA 0.5 mM, Tween-20 0.01%, MnCl2 5 mM. Kinase reaction is stopped by addition of EDTA. Supernatant is discarded, plates are washed three times with 150 mM NaCl and radioactivity is then measured in a Microbeta Trilux reader.

IRAK1 = IRAK1 (Homo sapiens (Human), UniProt P51617); test: IRAK1 enzymatic assay; assay type: biochemical; details: human recombinant His-TEV-IRAK1, ATP 1 μM, FlashPlate
Procedure: IRAK1 is a human purified recombinant enzyme (His-TEV-IRAK1 (194-712)) In this assay, IRAK-1 hydrolyses ATP and autophosphorylates.
Measurement of IRAK-1 inhibition is performed in streptavidin coated 384 well FlashPlate (PerkinElmer #SMP410A).
His-TEV-IRAK-1 (15 ng/well), ATP (1 μM, [^33P]ATP 0.25 μCi/well) and compounds in DMSO (range of concentrations from 20 μM to 1 nM) or controls (2% DMSO) are incubated for 3 hours at 30° C. in assay buffer: Hepes pH7.0 50 mM, Fatty acid-free BSA 0.1%, Dithiothreitol DTT 2 mM, MgCl2 10 mM, EGTA 0.5 mM, Triton-X-100 0.01%. Kinase reaction is stopped by addition of EDTA. Supernatant is discarded, plates are washed three times with 150 mM NaCl and radioactivity is then measured in a Microbeta Trilux reader.

IRAK4, sequence (Q9NWZ3 whole entry): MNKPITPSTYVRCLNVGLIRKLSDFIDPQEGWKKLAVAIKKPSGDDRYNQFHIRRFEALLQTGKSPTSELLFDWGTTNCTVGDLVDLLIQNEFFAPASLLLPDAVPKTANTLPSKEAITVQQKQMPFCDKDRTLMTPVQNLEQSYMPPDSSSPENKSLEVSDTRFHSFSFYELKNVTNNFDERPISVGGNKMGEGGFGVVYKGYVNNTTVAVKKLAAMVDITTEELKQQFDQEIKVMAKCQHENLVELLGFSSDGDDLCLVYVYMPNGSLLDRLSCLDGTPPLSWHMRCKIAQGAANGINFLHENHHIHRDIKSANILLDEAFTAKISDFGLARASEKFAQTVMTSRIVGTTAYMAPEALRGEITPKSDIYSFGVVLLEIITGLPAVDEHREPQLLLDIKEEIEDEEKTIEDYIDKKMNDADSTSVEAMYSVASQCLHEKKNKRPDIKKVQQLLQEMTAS
IRAK1, sequence (P51617 194-712): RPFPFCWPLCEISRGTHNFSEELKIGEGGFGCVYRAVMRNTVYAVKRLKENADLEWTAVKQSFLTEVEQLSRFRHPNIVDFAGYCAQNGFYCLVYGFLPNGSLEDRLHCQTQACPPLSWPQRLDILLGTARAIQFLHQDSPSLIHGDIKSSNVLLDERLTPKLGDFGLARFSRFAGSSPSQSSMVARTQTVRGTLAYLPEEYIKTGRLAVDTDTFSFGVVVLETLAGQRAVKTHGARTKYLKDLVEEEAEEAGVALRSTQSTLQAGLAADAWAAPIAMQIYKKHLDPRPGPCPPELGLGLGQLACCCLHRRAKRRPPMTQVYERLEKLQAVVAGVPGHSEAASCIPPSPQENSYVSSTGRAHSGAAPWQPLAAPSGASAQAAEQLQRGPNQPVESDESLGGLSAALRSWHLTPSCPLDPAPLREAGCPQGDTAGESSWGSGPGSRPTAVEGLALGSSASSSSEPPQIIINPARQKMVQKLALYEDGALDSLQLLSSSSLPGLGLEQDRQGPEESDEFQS

SMILES	IC50 (IRAK4)	IC50 (IRAK1)
CC(C)(C)C(=O)Oc1ccc2[nH]c(NC(=O)c3cccc(Cn4nc(-c5cccnc5)ccc4=O)c3)nc2c1 [Example 1, 2,2-Dimethyl-propionic acid 2-[3-(6-oxo-3-pyridin-3-yl-6H-pyridazin-1-ylmethyl)-benzoylamino]-1H-benzoimidazol-5-yl ester]	< 100 nM	100 to 1000 nM
O=C(Nc1nc2ccccc2[nH]1)c1cccc(Cn2nc(-c3cccnc3)ccc2=O)c1 [Example 2, N-(1H-Benzoimidazol-2-yl)-3-(6-oxo-3-pyridin-3-yl-6H-pyridazin-1-ylmethyl)-benzamide]	100 to 1000 nM	< 100 nM
Cn1c(NC(=O)c2cccc(Cn3nc(-c4cccnc4)ccc3=O)c2)nc2ccccc21 [Example 3, N-(1-Methyl-1H-benzoimidazol-2-yl)-3-(6-oxo-3-pyridin-3-yl-6H-pyridazin-1-ylmethyl)-benzamide]	1000 to 5000 nM	–
COC(=O)c1ccc2[nH]c(NC(=O)c3cccc(Cn4nc(-c5cccnc5)ccc4=O)c3)nc2c1 [Example 4, 2-[3-(6-Oxo-3-pyridin-3-yl-6H-pyridazin-1-ylmethyl)-benzoylamino]-1H-benzoimidazole-5-carboxylic acid methyl ester]	1000 to 5000 nM	–
O=C(Nc1nc2cc(CO)ccc2[nH]1)c1cccc(Cn2nc(-c3cccnc3)ccc2=O)c1 [Example 5, N-(5-Hydroxymethyl-1H-benzoimidazol-2-yl)-3-(6-oxo-3-pyridin-3-yl-6H-pyridazin-1-ylmethyl)-benzamide]	< 100 nM	< 100 nM
CN(C)C(=O)Cc1ccc2[nH]c(NC(=O)c3cccc(Cn4nc(-c5cccnc5)ccc4=O)c3)nc2c1 [Example 6, N-(5-Dimethylcarbamoylmethyl-1H-benzoimidazol-2-yl)-3-(6-oxo-3-pyridin-3-yl-6H-pyridazin-1-ylmethyl)-benzamide]	< 100 nM	< 100 nM
O=C(Nc1nc2ccccc2[nH]1)c1cccc(Cn2nc(-c3ccc(CO)nc3)ccc2=O)c1 [Example 7, N-(1H-Benzoimidazol-2-yl)-3-[3-(6-hydroxymethyl-pyridin-3-yl)-6-oxo-6H-pyridazin-1-ylmethyl]-benzamide]	< 100 nM	–
O=C(Nc1nc2ccccc2[nH]1)c1cccc(Cn2nc(-c3cncnc3)ccc2=O)c1 [Example 8, N-(1H-Benzoimidazol-2-yl)-3-(6-oxo-3-pyrimidin-5-yl-6H-pyridazin-1-ylmethyl)-benzamide]	100 to 1000 nM	100 to 1000 nM
Nc1ccc(-c2ccc(=O)n(Cc3cccc(C(=O)Nc4nc5ccccc5[nH]4)c3)n2)cn1 [Example 9, 3-[3-(6-Amino-pyridin-3-yl)-6-oxo-6H-pyridazin-1-ylmethyl]-N-(1H-benzoimidazol-2-yl)-benzamide]	< 100 nM	< 100 nM
Cc1cc(=O)n(Cc2cccc(C(=O)Nc3nc4ccccc4[nH]3)c2)nc1-c1cccnc1 [Example 10]	–	100 to 1000 nM
CN(C)Cc1ccc(-c2ccc(=O)n(Cc3cccc(C(=O)Nc4nc5ccccc5[nH]4)c3)n2)cn1 [Example 11, N-(1H-benzo[d]imidazol-2-yl)-3-((3-(6-((dimethylamino)methyl)pyridin-3-yl)-6-oxopyridazin-1(6H)-yl)methyl)benzamide]	1000 to 5000 nM	1000 to 5000 nM
Cc1ccncc1-c1ccc(=O)n(Cc2cccc(C(=O)Nc3nc4ccccc4[nH]3)c2)n1 [Example 12, N-(1H-benzo[d]imidazol-2-yl)-3-((3-(4-methylpyridin-3-yl)-6-oxopyridazin-1(6H)-yl)methyl)benzamide]	100 to 1000 nM	–
Cc1cc(-c2ccc(=O)n(Cc3cccc(C(=O)Nc4nc5ccccc5[nH]4)c3)n2)cnn1 [Example 13, N-(1H-benzo[d]imidazol-2-yl)-3-((3-(6-methylpyridazin-4-yl)-6-oxopyridazin-1(6H)-yl)methyl)benzamide]	100 to 1000 nM	100 to 1000 nM
CN(C)Cc1cncc(-c2ccc(=O)n(Cc3cccc(C(=O)Nc4nc5ccccc5[nH]4)c3)n2)c1 [Example 14, N-(1H-benzo[d]imidazol-2-yl)-3-((3-(5-((dimethylamino)methyl)pyridin-3-yl)-6-oxopyridazin-1(6H)-yl)methyl)benzamide]	1000 to 5000 nM	–
COc1cc2nc(NC(=O)c3cccc(Cn4nc(-c5cccnc5)ccc4=O)c3)[nH]c2cc1OC [Example 15, N-(5,6-dimethoxy-1H-benzo[d]imidazol-2-yl)-3-((6-oxo-3-(pyridin-3-yl)pyridazin-1(6H)-yl)methyl)benzamide]	< 100 nM	100 to 1000 nM
COc1ccc2[nH]c(NC(=O)c3cccc(Cn4nc(-c5cccnc5)ccc4=O)c3)nc2c1 [Example 16, N-(5-methoxy-1H-benzo[d]imidazol-2-yl)-3-((6-oxo-3-(pyridin-3-yl)pyridazin-1(6H)-yl)methyl)benzamide]	100 to 1000 nM	< 100 nM
O=C(Nc1nc2ccccc2[nH]1)c1cccc(Cn2nc(-c3cncc(CO)c3)ccc2=O)c1 [Example 17, N-(1H-Benzoimidazol-2-yl)-3-[3-(5-hydroxymethyl-pyridin-3-yl)-6-oxo-6H-pyridazin-1-ylmethyl]-benzamide]	< 100 nM	< 100 nM

From patent US9567320B2, “Pyridazinone-amides derivatives” (Merck Patent GmbH, priority 2013, dated 2017)
